These results are taken from US20180093104A1, “LIGHT IRRADIATION METHOD, LIGHT IRRADIATION DEVICE, LIGHT IRRADIATION SYSTEM, DEVICE SYSTEM FOR PHOTODYNAMIC DIAGNOSIS OR PHOTODYNAMIC THERAPY, SYSTEM FOR SPECIFYING TUMOR SITE AND SYSTEM FOR TREATING TUMOR” (SONY CORPORATION, priority 2015, published 2018).

The subject of this assay is MCF7 (Human breast adenocarcinoma-derived cell line). Nature of the assay: In vitro PDT experiment: calcein fluorescence viability observation after 405 nm pulse laser irradiation. The assay is classed as cell-based. The method, then:
In vitro experiments of PDT were performed by using the following materials. Target cells: MCF7 (Human breast adenocarcinoma-derived cell line) Dish: φ35 mm glass bottom dish (non-coated) Culture medium: D-MEM-10% FBS-1% P/S-1 mM pyruvate sodium Photosensitizer: 10 μg/ml talaporfin Viability assay fluorescence reagent: 10 μg/ml calcein Firstly, dishes A and B in which MCF7 had been cultured in the culture medium described above were prepared. Into the dish A, talaporfin was not added, and the dish A was used as a control. Into the dish B, talaporfin at 10 μg/ml was added. […] After the irradiation, incubation was performed further for 18 hours, the cultured cells in each dish were washed twice with phosphate-buffered saline (PBS), substitution with 1 ml of calcein at 10 μg/ml was performed, and the cultured cells in each dish were observed.

Regarding `C=Cc1c(C)c2cc3nc(c(CC(=O)N[C@@H](CC(=O)O)C(=O)O)c4[nH]c(cc5nc(cc1[nH]2)C(C)=C5CC)c(C)c4C(=O)O)[C@@H](CCC(=O)O)[C@@H]3C` [talaporfin], where the note is “Experiment 1: 10 μg/ml talaporfin, 24 hours incubation, pulse laser 405 nm, 120 fs, 1 mW for 30 minutes, observed 18 hours after irradiation, compared with dish A without talaporfin”, the “killing of cultured cells (calcein fluorescent image, FIG. 8 vs FIG. 7)” value is recorded as “significantly killed”. Besides, the “killing of cultured cells in parts of the dish where irradiation had not been performed” value (Experiment 2: 10 μg/ml talaporfin, 24 hours incubation, non-irradiated parts of dish B) was “not able to be confirmed”. The “killing of cultured cells (calcein fluorescent image, FIG. 10 vs FIG. 9)” value (Experiment 2: 10 μg/ml talaporfin, 24 hours incubation, pulse laser 405 nm for 10 minutes, compared with dish A without talaporfin) was “significantly killed”. For the same compound, the “killing of cultured cells (calcein fluorescent image, FIG. 12)” value (Experiment 3: 10 μg/ml talaporfin, 24 hours incubation, not irradiated with a pulse laser) was “not killed”. For the same compound, the “killing of cultured cells (calcein fluorescent image, FIG. 14)” value (Experiment 4: 10 μg/ml talaporfin, 1.5 hours incubation, pulse laser 405 nm for 10 minutes) is reported as “the cells were alive”.
